In patent US20030176351A1, “Peptides and peptide analogues designed from a diabetes-associated autoantigen, and methods for their use in the treatment and prevention of diabetes” (priority 1999, published 2003):
Like-named read-outs stand apart in the source and are kept apart here.

Assays:
[1] = test system: T cells from Patient #6211; experiment: γIFN response of serially expanded T cells from Patient #6211 restimulated with GAD65 peptides and autologous APC; format: cell-based, human; settings: T cells from Patient #6211 expanded in serial culture, autologous APC
Method: 10^5 thawed and irradiated DRB1*0404, DRB1*0405, or control (non-DR4) peripheral blood lymphocytes (PBL) in a volume of 100 μl were added to wells of 96 V-bottom plates containing peptide or medium and allowed to incubate for 2-3 hours at which time 4×10^4 T cells were added for a total volume of 200 μl-250 μl. At 20-24 hours of coculture, supernatants were harvested for cytokine determination and the wells replenished with fresh medium. At 48 hours, wells were radiolabeled with 1 μCi H^3-thymidine and cultured for an additional 18 hr. The plates were harvested on a TomTec Manual Mach III harvester and incorporated thymidine (as cpm) was determined by liquid spectroscopy on a Wallac Microbeta LSC.
Traditional sandwich ELISA were performed to test the supernatants for human γIFN, using matched antibody sets obtained from Endogen. The plates were read at 405 nm on a Microplate reader (Bio-Tek). The concentration of cytokine was estimated from standard curves using linear regression.
T cells from Patient #6211 were expanded in serial culture by restimulation with GAD65 peptides incubated with autologous APC. Specific T cell responses were present for both peptides 553-572 (53 pg/ml γIFN) and 555-567 (51 pg/ml γIFN), but not peptide 569-585 (5 pg/ml γIFN), localizing the minimal epitope to the 555-567 region. T cell clones were derived by expansion of this culture; proliferation, and cytokine response profiles for CD4^+ T cell clones BRI.4-10 and BRI.4-11 are shown in FIGS. 1A and 1B.

DR4 = settings: Wicker et al, 1996; cited from earlier work
T cell clone BRI.4-11 = experiment: prepulse antagonism assay, response to GAD65 555-567, clone BRI.4-11; format: cell-based, human
DR4 molecules = DR4 molecules (Homo sapiens, UniProt P01903+P01911, A100K/A169T/F76Y/I96L/K127E/L162R/M171V/N62H/P40V/Q125Y/R42H/S133A/S149N/S66Y/V115G/V209L/W38E); experiment: standard DR4-peptide fluorescent binding assay
T cell clone BRI.4-10 = experiment: prepulse antagonism assay, response to GAD65 555-567, clone BRI.4-10; format: cell-based, human

Molecule: 553-572: GAD65 peptide of residues 553-572 (KVNFFRMVISNPAATHQDID; UniProt Q05329 553-572, looked up, fragment)
- γIFN, specific T cell response [1]: 53 pg/mL

Molecule: 554-566: GAD65 554-566 sequence, DR4-binding peptide of Wicker et al (VNFFRMVISNPAA; UniProt Q05329 554-566, looked up, fragment)
- DR4 binding avidity among GAD65 peptides (DR4): most avid binding peptide identified

Molecule: 569-585: GAD65 peptide of residues 569-585 (QDIDFLIEEIERLGQDL; UniProt Q05329 569-585, looked up, fragment)
- γIFN, specific T cell response [1]: 5 pg/mL

Molecule: CC[C@H](C)[C@H](NC(=O)[C@@H](NC(=O)[C@H](CCSC)NC(=O)[C@H](CCCNC(=N)N)NC(=O)[C@H](Cc1ccccc1)NC(=O)[C@H](Cc1ccccc1)NC(=O)[C@@H](N)CC(N)=O)C(C)C)C(=O)N[C@@H](CO)C(=O)N[C@@H](CC(N)=O)C(=O)N1CCC[C@H]1C(=O)N[C@@H](C)C(=O)N[C@@H](C)C(=O)N[C@H](C(=O)O)[C@@H](C)O [555-567]
- γIFN, specific T cell response [1]: 51 pg/mL

Molecule: CSCC[C@H](NC(=O)[C@H](CCCNC(=N)N)NC(=O)[C@H](Cc1ccccc1)NC(=O)[C@H](Cc1ccccc1)NC(=O)[C@@H](N)CC(N)=O)C(=O)N[C@H](C(=O)N[C@@H](CC(C)C)C(=O)N[C@@H](CO)C(=O)N[C@@H](CC(N)=O)C(=O)N1CCC[C@H]1C(=O)N[C@@H](C)C(=O)N[C@@H](C)C(=O)N[C@H](C(=O)O)[C@@H](C)O)C(C)C [561 L]
- antagonism of proliferative response (in words) (T cell clone BRI.4-11; clone BRI.4-11, highest concentration tested, APC pre-pulsed with agonist peptide): partially antagonized

Molecule: CSCC[C@H](NC(=O)[C@H](CCCNC(=N)N)NC(=O)[C@H](Cc1ccccc1)NC(=O)[C@H](Cc1ccccc1)NC(=O)[C@@H](N)CC(N)=O)C(=O)N[C@H](C(=O)N[C@@H](CCSC)C(=O)N[C@@H](CO)C(=O)N[C@@H](CC(N)=O)C(=O)N1CCC[C@H]1C(=O)N[C@@H](C)C(=O)N[C@@H](C)C(=O)N[C@H](C(=O)O)[C@@H](C)O)C(C)C [561 M]
- IC50 (DR4 molecules): 400 nM
- reduction of T cell proliferative response (T cell clone BRI.4-10; clone BRI.4-10, APC pre-pulsed with agonist peptide 555-567): 80%
- antagonism of γIFN cytokine response (in words) (T cell clone BRI.4-10; clone BRI.4-10, APC pre-pulsed with agonist peptide 555-567, FIG. 2B): similarly antagonized
- antagonism of T cell responses (proliferation and γIFN, FIGS. 2C and 2D) (T cell clone BRI.4-11; clone BRI.4-11, APC pre-pulsed with agonist peptide 555-567): more than 90%

Molecule: VNFFRMVISNPAATHQD [GAD 554-570]
- IC50 (DR4 molecules; read-out: peptide binding: concentration of peptide giving 50% inhibition of a standard DR4-peptide fluorescent binding assay): 600 nM
